Assay results: PubChem BioAssay AID2060484 (Molecular Pharmacology Branch, DTP, NCI, 2025)
“And” between values parts separate entries of the source, which are not always exact repeats. Identical values can stand only once.

System: SUM149PT spheroids with HUVEC/MSC, viability
Assay: Anticancer human tumor SUM149PT cell line growth inhibition [GQUAD];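 also: spheroids exposed to drugs for seven days before readout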;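 as to viability, T/C: percent viability relative to DMSO vehicle control taken as 100%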
Conditions: for viability, T/C: stronger effect = lower value
Text: DNA G-quadruplex Stabilizer Agents in Combinations in Complex Spheroids
A high-throughput screen of multi-cell type tumor spheroids was designed to identify active combinations of DNA G-quadruplex stabilizer agents and targeted small molecules. Complex spheroids include a stromal component modeled by human endothelial cells (HUVEC) and fibroblasts modeled by human mesenchymal stem cells (MSCs). The concentration ranges selected for each drug and investigational agent were based upon clinically achievable concentrations if the clinical Cmax of the agent was known.
Compounds. The drugs and investigational agents: pidnarulex (CX-5461; NSC782164), APTO-253 (NSC789042), BRACO-19 (NSC847499), peposertib (NSC802822), ceralasertib (NSC780249), elimusertib (NSC800525), camonsertib (NSC841442), AZD-1390 (NSC803789), olaparib (NSC753686), talazoparib (NSC767125), ART-558 (NSC835418), sotorasib (NSC818433), MRTX-1133 (NSC836407), SN-38 (NSC673596), topotecan (NSC609699), etoposide (NSC141540), doxorubicin (NSC123127), gemcitabine (NSC613327), 5-fluorouracil (NSC19893), paclitaxel (NSC125973), vemurafenib (NSC761431), panobinostat (NSC761190), R-306465 (JNJ-16241199; NSC773264), adavosertib (NSC754352), TP-3654 (NSC805149), carboplatin (NSC241240), KSQ-4279 (NSC840948), and staurosporine (NSC755774) were obtained from the National Cancer Institute (NCI) Developmental Therapeutics Program Chemical Repository (34). The FDA-approved anticancer drug set is available from the NCI Developmental Therapeutics Program. […] The stock solutions were prepared in dimethyl sulfoxide (DMSO, Sigma-Aldrich, St. Louis, MO, cat. D2650) at 800-fold the tested concentration and stored at -70 degrees C prior to their use. All drugs and investigational agents were tested over a range starting from a high concentration at or near the clinical Cmax and decreasing in half-log increments. If the clinical Cmax for an agent had not been determined, the highest concentration tested was 10 microM.
2.3 Cell Culture. All cells were maintained in an incubator at 37 degrees C and 5% CO2 with 95% humidity. The PDC lines were cultured according to standard operating procedures established by the NCI PDMR. All PDCs were thawed and cultured in Matrigel-coated flasks prepared with a working solution of 1X Ham's F-12 nutrient mix, without supplementation (Invitrogen, cat. 11765054), 100 U/mL penicillin-streptomycin (Invitrogen, cat. 15140122), and 2.5% Matrigel (Corning Inc., cat. 354248) for the first three passages. The 857933-349-R-J2-PDC line was cultured in 6C/Colon 1B media, which includes advanced DMEM/F-12 (Thermo Fisher Scientific, cat. 12634028), 10 mM HEPES (Thermo Fisher Scientific, cat. 15630080), 1X GlutaMAX supplement (Thermo Fisher Scientific, cat. 35050061), 0.1 mg/mL primocin (InvivoGen, cat. ant-pm-2), 10% defined fetal bovine serum, heat inactivated (HyClone Laboratories Inc., cat. SH30070.03HI), 50% L-WRN conditioned media (ATCC, cat. CRL-3276), 1.25 mM N-Acetyl-L-cysteine (Sigma-Aldrich, cat. A9165), 10 mM nicotinamide (Sigma-Aldrich, cat. N0636), 1X B-27 supplement (Thermo Fisher Scientific, cat. 17504044), 1X N-2 supplement (Thermo Fisher Scientific, cat. 17502048), 10 microM Y-27632 dihydrochloride (Tocris Bioscience, cat. 1254), and 50 ng/mL human EGF recombinant protein (Thermo Fisher Scientific, cat. PHG0311). The 485176-168-R4-J1-PDC line was cultured in Panc media, which includes all 6C/Colon 1B media components plus 100 ng/mL human FGF-10 (Thermo Fisher Scientific, cat. 100-26), 500 nM SB-431542 (Selleckchem, cat. S1067), and gastrin (Tocris, cat. 3006).
[…]

O=c1[nH]cc(F)c(=O)[nH]1
viability, T/C (compound 0.0316 µM): 103% and 95.7% and 106%
viability, T/C (compound 0.1 µM): 93.6% and 90.8% and 93.9%
viability, T/C (compound 0.316 µM): 108% and 110% and 101%
viability, T/C (compound 1 µM): 102% and 107% and 96%
viability, T/C (compound 3.16 µM): 56.9% and 55.7% and 61.6%
viability, T/C (compound 10 µM): 51.6% and 43.3% and 50.6%
IC50 (curve of compound): > 10000 nM and 5360 nM

Cn1ncnc1[C@H]1c2n[nH]c(=O)c3cc(F)cc(c23)N[C@@H]1c1ccc(F)cc1 + CN(C)c1ccc(Nc2c3ccc(NC(=O)CCN4CCCC4)cc3nc3cc(NC(=O)CCN4CCCC4)ccc23)cc1
IC50 (curve of first compound, second compound 0.0316 µM): > 316 nM
IC50 (curve of first compound, second compound 0.1 µM): > 316 nM
IC50 (curve of first compound, second compound 0.316 µM): > 316 nM
IC50 (curve of first compound, second compound 1 µM): > 316 nM
IC50 (curve of first compound, second compound 3.16 µM): > 316 nM
IC50 (curve of first compound, second compound 10 µM): > 316 nM
viability, T/C (second compound 0.0316 µM, first compound 0.000999 µM): 110%
viability, T/C (second compound 0.0316 µM, first compound 0.00316 µM): 91.4%
viability, T/C (second compound 0.0316 µM, first compound 0.00999 µM): 94.5%
viability, T/C (second compound 0.0316 µM, first compound 0.0316 µM): 92.1%
viability, T/C (second compound 0.0316 µM, first compound 0.0999 µM): 91.9%
viability, T/C (second compound 0.0316 µM, first compound 0.316 µM): 69.4%
viability, T/C (second compound 0.1 µM, first compound 0.000999 µM): 95%
viability, T/C (second compound 0.1 µM, first compound 0.00316 µM): 99.5%
viability, T/C (second compound 0.1 µM, first compound 0.00999 µM): 91.5%
viability, T/C (second compound 0.1 µM, first compound 0.0316 µM): 89.5%
viability, T/C (second compound 0.1 µM, first compound 0.0999 µM): 92.4%
viability, T/C (second compound 0.1 µM, first compound 0.316 µM): 66.6%
viability, T/C (second compound 0.316 µM, first compound 0.000999 µM): 96%
viability, T/C (second compound 0.316 µM, first compound 0.00316 µM): 83.4%
viability, T/C (second compound 0.316 µM, first compound 0.00999 µM): 98.1%
viability, T/C (second compound 0.316 µM, first compound 0.0316 µM): 78.2%
viability, T/C (second compound 0.316 µM, first compound 0.0999 µM): 81.1%
viability, T/C (second compound 0.316 µM, first compound 0.316 µM): 64.9%
viability, T/C (second compound 1 µM, first compound 0.000999 µM): 87.6%
viability, T/C (second compound 1 µM, first compound 0.00316 µM): 88.1%
viability, T/C (second compound 1 µM, first compound 0.00999 µM): 77%
viability, T/C (second compound 1 µM, first compound 0.0316 µM): 81.5%
viability, T/C (second compound 1 µM, first compound 0.0999 µM): 81.2%
viability, T/C (second compound 1 µM, first compound 0.316 µM): 56.7%
viability, T/C (second compound 3.16 µM, first compound 0.000999 µM): 79.3%
viability, T/C (second compound 3.16 µM, first compound 0.00316 µM): 89%
viability, T/C (second compound 3.16 µM, first compound 0.00999 µM): 80.3%
viability, T/C (second compound 3.16 µM, first compound 0.0316 µM): 80.8%
viability, T/C (second compound 3.16 µM, first compound 0.0999 µM): 73.8%
viability, T/C (second compound 3.16 µM, first compound 0.316 µM): 56%
viability, T/C (second compound 10 µM, first compound 0.000999 µM): 88.9%
viability, T/C (second compound 10 µM, first compound 0.00316 µM): 79%
viability, T/C (second compound 10 µM, first compound 0.00999 µM): 72.2%
viability, T/C (second compound 10 µM, first compound 0.0316 µM): 83.5%
viability, T/C (second compound 10 µM, first compound 0.0999 µM): 74.2%
viability, T/C (second compound 10 µM, first compound 0.316 µM): 52.3%
